Data published in US5441941A, “1,2-dihydroellipticines with activity against CNS specific cancer” (The United States of America as represented by the …, priority 1993, dated 1995).

Assays:
MOLT-4 = experiment: cells; settings: Homo sapiens
KM20L2 = experiment: cells; settings: Homo sapiens
786-0 = experiment: cells; settings: Homo sapiens
Human tumor cell lines = experiment: NCI in vitro screen, overall result; settings: Tables I and II
CCRF-CEM = experiment: NCI in vitro screen, SRB percent growth, Leukemia
K-562 = experiment: NCI in vitro screen, SRB percent growth, Leukemia
SK-MEL-2 = experiment: NCI in vitro screen, SRB percent growth, Melanoma
SK-MEL-5 = experiment: NCI in vitro screen, SRB percent growth, Melanoma
UACC-62 = experiment: NCI in vitro screen, SRB percent growth, Melanoma
SF-268 = experiment: NCI in vitro screen, SRB percent growth, CNS Cancer
SF-539 = experiment: as above
HCT-116 = experiment: NCI in vitro screen, SRB percent growth, Colon Cancer
HT29 = experiment: as above
KM12 = experiment: as above
TK-10 = experiment: NCI in vitro screen, SRB percent growth, Renal Cancer
UO-31 = experiment: as above
NCI-H23 = experiment: NCI in vitro screen, SRB percent growth, Non-Small Cell Lung Cancer
[1] = MOLT-4, read-out: Percent Growth
[2] = KM-20L2, read-out: Percent Growth
[3] = 786-0, read-out: Percent Growth
[4] = Log10 Concentration -4.0, 100 µM
[5] = Log10 Concentration -7.0, 0.1 µM

Structure (SMILES): Cc1ccc2[nH]c3c(C)c4c(c(C)c3c2c1)CN(C)C=C4 [Formula XI]
- GI50 (MOLT-4; MOLT-4): 2.14 µM
- CC50 (MOLT-4; MOLT-4, read-out: LC-50): > 100 µM
- activity at 0.01 µM (MOLT-4; [1]): 104%
- activity at 0.1 µM (MOLT-4; [1]): 101%
- activity at 1 µM (MOLT-4; [1]): 68%
- activity at 10 µM (MOLT-4; [1]): 14%
- activity at 100 µM (MOLT-4; [1]): -50%
- IC (TGI) (MOLT-4; MOLT-4, read-out: TGI): 16.5 µM
- GI50 (KM20L2; KM-20L2): 2.22 µM
- CC50 (KM20L2; KM-20L2, read-out: LC-50): 38 µM
- activity at 0.01 µM (KM20L2; [2]): 106%
- activity at 0.1 µM (KM20L2; [2]): 95%
- activity at 1 µM (KM20L2; [2]): 73%
- activity at 10 µM (KM20L2; [2]): 7%
- activity at 100 µM (KM20L2; [2]): -91%
- IC (TGI) (KM20L2; KM-20L2, read-out: TGI): 11.7 µM
- GI50 (786-0; 786-0): 0.523 µM
- CC50 (786-0; 786-0, read-out: LC-50): 37.3 µM
- activity at 0.01 µM (786-0; [3]): 102%
- activity at 0.1 µM (786-0; [3]): 96%
- activity at 1 µM (786-0; [3]): 32%
- activity at 10 µM (786-0; [3]): 3%
- activity at 100 µM (786-0; [3]): -90%
- IC (TGI) (786-0; 786-0, read-out: TGI): 10.7 µM
- effect against many kinds of cancer (Human tumor cell lines): effective against many kinds of cancer
- Percent Growth (CCRF-CEM; [4]): -35%
- Percent Growth (CCRF-CEM; Log10 Concentration -5.0): 13%
- Percent Growth (CCRF-CEM; Log10 Concentration -6.0, 1 µM): 74%
- Percent Growth (CCRF-CEM; [5]): 94%
- Percent Growth (CCRF-CEM; Log10 Concentration -8.0): 102%
- TGI (CCRF-CEM; PG=0): 18 µM
- GI50 (CCRF-CEM; PG=+50): 2.48 µM
- CC50 (CCRF-CEM; read-out: LC-50, PG=-50): > 100 µM
- Percent Growth (K-562; [4]): 2%
- Percent Growth (K-562; Log10 Concentration -5.0): 6%
- Percent Growth (K-562; Log10 Concentration -6.0, 1 µM): 53%
- Percent Growth (K-562; [5]): 83%
- Percent Growth (K-562; Log10 Concentration -8.0): 95%
- TGI (K-562; PG=0): > 100 µM
- GI50 (K-562; PG=+50): 1.17 µM
- CC50 (K-562; read-out: LC-50, PG=-50): > 100 µM
- Percent Growth (SK-MEL-2; [4]): -94%
- Percent Growth (SK-MEL-2; Log10 Concentration -5.0): -92%
- Percent Growth (SK-MEL-2; Log10 Concentration -6.0, 1 µM): 94%
- Percent Growth (SK-MEL-2; [5]): 103%
- Percent Growth (SK-MEL-2; Log10 Concentration -8.0): 98%
- TGI (SK-MEL-2; PG=0): 3.2 µM
- GI50 (SK-MEL-2; PG=+50): 1.72 µM
- CC50 (SK-MEL-2; read-out: LC-50, PG=-50): 5.96 µM
- Percent Growth (SK-MEL-5; [4]): -90%
- Percent Growth (SK-MEL-5; Log10 Concentration -5.0): -79%
- Percent Growth (SK-MEL-5; Log10 Concentration -6.0, 1 µM): 77%
- Percent Growth (SK-MEL-5; [5]): 94%
- Percent Growth (SK-MEL-5; Log10 Concentration -8.0): 92%
- TGI (SK-MEL-5; PG=0): 3.11 µM
- GI50 (SK-MEL-5; PG=+50): 1.49 µM
- CC50 (SK-MEL-5; read-out: LC-50, PG=-50): 6.49 µM
- Percent Growth (UACC-62; [4]): -84%
- Percent Growth (UACC-62; Log10 Concentration -5.0): -91%
- Percent Growth (UACC-62; Log10 Concentration -6.0, 1 µM): 92%
- Percent Growth (UACC-62; [5]): 100%
- Percent Growth (UACC-62; Log10 Concentration -8.0): 106%
- TGI (UACC-62; PG=0): 3.18 µM
- GI50 (UACC-62; PG=+50): 1.69 µM
- CC50 (UACC-62; read-out: LC-50, PG=-50): 5.99 µM
- Percent Growth (SF-268; [4]): -83%
- Percent Growth (SF-268; Log10 Concentration -5.0): -94%
- Percent Growth (SF-268; Log10 Concentration -6.0, 1 µM): -39%
- Percent Growth (SF-268; [5]): 96%
- Percent Growth (SF-268; Log10 Concentration -8.0): 101%
- TGI (SF-268; PG=0): 0.514 µM
- GI50 (SF-268; PG=+50): 0.218 µM
- CC50 (SF-268; read-out: LC-50, PG=-50): 1.6 µM
- Percent Growth (SF-539; [4]): -90%
- Percent Growth (SF-539; Log10 Concentration -5.0): -58%
- Percent Growth (SF-539; Log10 Concentration -6.0, 1 µM): 6%
- Percent Growth (SF-539; [5]): 92%
- Percent Growth (SF-539; Log10 Concentration -8.0): 99%
- TGI (SF-539; PG=0): 1.23 µM
- GI50 (SF-539; PG=+50): 0.305 µM
- CC50 (SF-539; read-out: LC-50, PG=-50): 7.56 µM
- Percent Growth (HCT-116; [4]): -81%
- Percent Growth (HCT-116; Log10 Concentration -5.0): 3%
- Percent Growth (HCT-116; Log10 Concentration -6.0, 1 µM): 83%
- Percent Growth (HCT-116; [5]): 103%
- Percent Growth (HCT-116; Log10 Concentration -8.0): 113%
- TGI (HCT-116; PG=0): 10.9 µM
- GI50 (HCT-116; PG=+50): 2.58 µM
- CC50 (HCT-116; read-out: LC-50, PG=-50): 42.8 µM
- Percent Growth (HT29; [4]): -93%
- Percent Growth (HT29; Log10 Concentration -5.0): 4%
- Percent Growth (HT29; Log10 Concentration -6.0, 1 µM): 82%
- Percent Growth (HT29; [5]): 95%
- Percent Growth (HT29; Log10 Concentration -8.0): 99%
- TGI (HT29; PG=0): 11.1 µM
- GI50 (HT29; PG=+50): 2.57 µM
- CC50 (HT29; read-out: LC-50, PG=-50): 36 µM
- Percent Growth (KM12; [4]): -93%
- Percent Growth (KM12; Log10 Concentration -5.0): -48%
- Percent Growth (KM12; Log10 Concentration -6.0, 1 µM): 38%
- Percent Growth (KM12; [5]): 95%
- Percent Growth (KM12; Log10 Concentration -8.0): 97%
- TGI (KM12; PG=0): 2.78 µM
- GI50 (KM12; PG=+50): 0.622 µM
- CC50 (KM12; read-out: LC-50, PG=-50): 11 µM
- Percent Growth (TK-10; [4]): -93%
- Percent Growth (TK-10; Log10 Concentration -5.0): 49%
- Percent Growth (TK-10; Log10 Concentration -6.0, 1 µM): 90%
- Percent Growth (TK-10; [5]): 101%
- Percent Growth (TK-10; Log10 Concentration -8.0): 103%
- TGI (TK-10; PG=0): 22.1 µM
- GI50 (TK-10; PG=+50): 9.46 µM
- CC50 (TK-10; read-out: LC-50, PG=-50): 49.6 µM
- Percent Growth (UO-31; [4]): -94%
- Percent Growth (UO-31; Log10 Concentration -5.0): 36%
- Percent Growth (UO-31; Log10 Concentration -6.0, 1 µM): 72%
- Percent Growth (UO-31; [5]): 76%
- Percent Growth (UO-31; Log10 Concentration -8.0): 103%
- TGI (UO-31; PG=0): 18.8 µM
- GI50 (UO-31; PG=+50): 3.99 µM
- CC50 (UO-31; read-out: LC-50, PG=-50): 45.7 µM
- Percent Growth (NCI-H23; [4]): -85%
- Percent Growth (NCI-H23; Log10 Concentration -5.0): -75%
- Percent Growth (NCI-H23; Log10 Concentration -6.0, 1 µM): 42%
- Percent Growth (NCI-H23; [5]): 97%
- Percent Growth (NCI-H23; Log10 Concentration -8.0): 95%
- TGI (NCI-H23; PG=0): 2.29 µM
- GI50 (NCI-H23; PG=+50): 0.668 µM
- CC50 (NCI-H23; read-out: LC-50, PG=-50): 6.15 µM
